In a melting point compilation (Tetko et al.; mined from patent text by program, amines drawn as free bases though some values may be those of a salt):
Residues, ends and D or L forms follow the SMILES beside them. *: point of attachment. Boc = CC(C)(C)OC(=O)*

SMILES | melting point [°C]
CCC(C)N(C(=O)c1cc(-c2ccccc2Cl)nc2ccccc12)C(C)CC (stereo not drawn) | 120
O=C(NCCO)c1cccc(-c2ccc3ccn(-c4ccc(Cl)cc4Cl)c3c2)c1 | 163 to 164
COCCONS(=O)(=O)c1ccccc1 | 110 to 112
O=C1C(=C(O)Cc2ccccc2)SC(=S)N1c1ccccc1 | 146 to 148
O=c1cc(-c2ccncc2)nc2n1CCCN2CCCc1c[nH]c2ccccc12 | 230 to 232
CCNC(=O)[C@@H](C[C@H](O)[C@H](CC1CCCCC1)NC(=O)[C@H](Cc1cscn1)NC(=O)OC(C)(C)C)C(C)(C)O | 189 to 191
COc1cc(-c2ccc(C#N)cc2)cc(C=O)c1O | 177 to 178
CN(C(=O)N[C@@H](Cc1ccc(Oc2nccc3ccncc23)cc1)C(=O)O)c1ccccc1Cc1ccccc1 | 128
CN1CCN(c2cccc3ccc(C(=O)NCc4ccc(Cl)cc4)cc23)CC1 | 72 to 74
Cc1cc(CNC(=O)c2cc(-c3ccc(-c4ccccc4)cc3)nn2C)ccc1OC(C)(C)C(=O)O | 90 to 95
O=C(Cn1ncc(-c2ccccc2)c1-c1ccccc1)NCCCO | 138 to 139
Fc1ccc(CN2CCN(C3CC=C(c4ccc(C(F)(F)F)cc4)CC3)CC2)cc1 (stereo not drawn) | 108 to 109
CCCCCCCCOC(=O)/C(C#N)=C/C=C/N(C)C | 80 to 81
O=[N+]([O-])c1cc(Br)cc(O)c1O | 102 to 105
Cn1nc(C#N)nc1NCCCOc1cccc(CN2CCCCC2)c1 | 66 to 67
Cn1c2ccccc2c2c3ccccc3ccc21 | 116 to 118
O=S1(=O)C=CC(c2ccccc2)(c2ccccc2)CC1 | 166
CNC(=C[N+](=O)[O-])NCCSCc1ncccc1OC | 146 to 147

SMILES | melting point [°C]
O=C(O)Cc1c(C(=O)c2ccc3c(c2)OCCO3)[nH]c2ccc(C(F)(F)F)cc12 | > 250
Cc1ccc(O)c2c1C(=O)C(=O)N2Cc1ccccc1 | 255 to 262
Cc1nc(-c2ccc([N+](=O)[O-])cc2)sc1C(=O)O | 252 to 253
COC(=O)c1cc(C(=O)Nc2ccncc2)c2cc(Cc3ccc(F)cc3)cnc2c1O | 266 to 267
COC(=O)c1ccc(NCCNC(=O)C2Cc3ccccc3N2S(=O)(=O)c2ccc(-c3cc(C(F)(F)F)ccc3Cl)cc2)cc1 (stereo not drawn) | 96 to 98
CCCCCCCCCCCCCCCCCCOc1cc(OCCCOc2ccc(S(C)(=O)=O)cc2)cc(N(CC(=O)OC)CC(=O)OC)c1 | 70 to 72
CC(C)(C)C(=O)CN1CCNC1=N[N+](=O)[O-] | 158 to 159
O=Cc1cn([C@H]2CCc3c(F)cc(F)cc3C2)c(=S)[nH]1 | > 285
NC12CC3CC(C1)CC(O)(C3)C2 | 260 to 264
Nc1ccc(S(=O)(=O)Nc2nnc(S(N)(=O)=O)s2)cc1 | 241 to 242
COc1ccc(C(C#N)Cc2cc(OC)c(OC)c(OC)c2)cc1 (stereo not drawn) | 102 to 103
CC(C)CC(NC(=O)C(Cc1ccc(O)cc1)NC(=O)OC(C)(C)C)C(=O)NCC(=O)O (stereo not drawn) (Boc-Tyr-Leu-Gly-OH; configuration not given here) | 189 to 190
CC(C)(C)OC(=O)N1CCc2c(n(CCO)c3c(Cl)ccc(Cl)c23)CC1 | 156 to 158
CCOC(=O)CCc1cn(Cc2cc(OCc3ccccc3)cc(OCc3csc(-c4cnccn4)n3)c2)cc1-c1ccccc1 | 126 to 127
O=C(O)c1cccc(N2CCC(N=Cc3ccccc3)=N2)c1 | 185
O=c1n(-c2ccc(N3CCNCC3)cc2)cnn1CC(F)(F)C(F)F | 155 to 157
CC(N(CC(=O)O)C(=O)c1ccc(C(F)(F)F)cc1)C(O)(Cn1cncn1)c1ccc(C(F)(F)F)cc1 (stereo not drawn) | 201 to 204

Now from value to compound:

melting point [°C] | SMILES
221 to 225 | O=C=Nc1ccc(N2CCOCC2)cc1
215 | COC(=O)c1c(C(=O)O)nc2cc(Cl)ccc2c1O
105 to 107 | N#Cc1c[nH]cc1-c1ccccc1C(F)(F)F
163 to 165 | CN(C(CCn1c(=O)cc(Cl)[nH]c1=O)C(=O)NO)S(=O)(=O)c1ccc(Oc2ccncc2)cc1 (stereo not drawn)
188 to 191 | CCCc1c(OCCCCCC(=O)c2ccc(O)c(O)c2)ccc(C(=O)O)c1O
224 to 226 | O=C(O)C1=Cc2cc(Oc3ccc(C(F)(F)F)cc3)cc(Cl)c2OC1C(F)(F)F (stereo not drawn)
92 to 93 | COc1ccc2oc3cccc(NCCN4CCCC4)c3c(=O)c2c1
140 to 142 | O=S1CCc2n[nH]c(CCCN3CCN(c4ccc(F)cc4)CC3)c2C1 (stereo not drawn)
56 to 57 | CCOP(=O)(OCC)C(CCc1cc(C)nc2cc(OC(=O)c3ccccc3)nn12)P(=O)(OCC)OCC
192 to 193 | O[C@@H]1CCCN(C[C@@H]2CCN(CCc3c[nH]c4ccc(-n5cncn5)cc34)C2)[C@@H]1c1ccccc1
202 to 204 | CC(C)(C)OC(=O)N1CCC(NC(=O)c2ccc(-n3cc4ccccc4n3)cc2)CC1
256 | Cc1cn(C)c2cc(C(F)(F)F)c(O)cc12
155 to 157 | CNC(=O)C(=C/c1ccccc1)/C(=C\c1cc(OC)c(OC)c(OC)c1)C(=O)OC
94 to 96 | Cc1c2c(c3ccccc3c1O)OCC2c1ccc(C(C)C)cc1 (stereo not drawn)
109 to 112 | CC1CCCCN(C(=O)C2Cc3ccccc3N2c2ccc(=O)n(C)n2)C1 (stereo not drawn)
199 to 201 | CCN(CC)c1nc(-c2ccc3c(c2)OCO3)nc2sc(C#N)c(C)c12
123 to 125 | O=C(NCCCCCn1ccnc1)c1ccc(Cl)s1

melting point [°C] | SMILES
138 to 139 | CN(C)CC(=O)N1c2ccccc2N(C)S(=O)(=O)c2ccc(Cl)cc21
73 to 75 | CCOCCOc1ccc2c(c1)C(N(CC)S(C)(=O)=O)CC(C)(C)O2 (stereo not drawn)
175 | CS(=O)(=O)c1ccc(C(=O)c2cc(-c3ccccc3)c(N3CCOCC3)s2)cc1
> 300 | O=C(O)C1=Cc2cc(Cl)cc(-c3nc4ccccc4[nH]3)c2OC1C(F)(F)F (stereo not drawn)
187 to 189 | COCCN1CCc2cc(Nc3ncc(Cl)c(NC4(C(=O)NCC#N)CC4)n3)c(OC)cc2CC1
176 to 181 | CC(=O)Nc1ccc(C#N)cc1I
80 | Clc1ccccc1C(Cl)c1ccc(-c2ccccc2)cc1 (stereo not drawn)
> 300 | O=C1N=C2C=CC=CN2C1(Cc1ccccc1)Cc1ccc(F)cc1 (stereo not drawn)
135 to 136 | COC(=O)C1=C(C=O)NC(C)=C(P2(=O)OCCCO2)C1c1ccccc1[N+](=O)[O-] (stereo not drawn)
90 to 96 | O=C1CCc2c(Cl)cc(Cl)c(OS(=O)(=O)C(F)(F)F)c21
66 | CCCCCCOc1ccc(-c2ccc(-c3ccc(CCCC)s3)c(F)c2)cc1
108 to 110 | O=C(CNC(=O)c1cc([N+](=O)[O-])c(F)cc1Cl)OCc1ccccc1
149 to 150 | CC(=O)NC1(c2ccc(C(C)N3CCN(c4ccc(F)cc4)CC3)cc2)CC1 (stereo not drawn)
98 to 99 | CCCOC(=O)N(C)SN(C(=O)NC(=O)c1c(F)cccc1F)c1ccc(Oc2ccc(C(F)(F)F)cc2Cl)cc1F
220 to 222 | COC(=O)c1ccc2c(c1)nc(C)n2N
165 | NCCN1CCC(Nc2nc3ccccc3n2Cc2ccc(CO)o2)CC1
